Data taken from patent US20250163038A1, “CBL-B MODULATORS AND USES THEREOF” (Nimbus Clio, Inc., priority 2021, published 2025).

What was measured:
[1] = molecular target: Recombinant human Cbl-b (aa 36-427) (Homo sapiens, UniProt Q13191); test: Cbl-b Biochemical Assay (TR-FRET); conditions: read-out: TR-FRET hCbl-b IC50
[2] = molecular target: T1, Recombinant human c-Cbl (aa 47-435) (Homo sapiens, UniProt P22681); test: c-Cbl Biochemical Assay (TR-FRET); conditions: hc-Cbl Biochemical Assay (TR-FRET); read-out: TR-FRET hcCbl IC50
T1 sequence (P22681 47-435): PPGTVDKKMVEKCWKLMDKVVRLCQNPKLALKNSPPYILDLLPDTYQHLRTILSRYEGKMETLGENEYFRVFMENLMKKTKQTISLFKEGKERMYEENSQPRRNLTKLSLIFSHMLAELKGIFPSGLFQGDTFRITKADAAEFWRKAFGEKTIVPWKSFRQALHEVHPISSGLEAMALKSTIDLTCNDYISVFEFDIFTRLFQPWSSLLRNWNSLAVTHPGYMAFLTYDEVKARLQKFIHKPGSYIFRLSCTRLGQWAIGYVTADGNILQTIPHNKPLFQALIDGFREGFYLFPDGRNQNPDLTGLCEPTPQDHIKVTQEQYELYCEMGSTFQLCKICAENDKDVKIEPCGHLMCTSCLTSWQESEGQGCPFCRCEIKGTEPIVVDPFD

Chain of Recombinant human Cbl-b (aa 36-427) (Q13191 36-427): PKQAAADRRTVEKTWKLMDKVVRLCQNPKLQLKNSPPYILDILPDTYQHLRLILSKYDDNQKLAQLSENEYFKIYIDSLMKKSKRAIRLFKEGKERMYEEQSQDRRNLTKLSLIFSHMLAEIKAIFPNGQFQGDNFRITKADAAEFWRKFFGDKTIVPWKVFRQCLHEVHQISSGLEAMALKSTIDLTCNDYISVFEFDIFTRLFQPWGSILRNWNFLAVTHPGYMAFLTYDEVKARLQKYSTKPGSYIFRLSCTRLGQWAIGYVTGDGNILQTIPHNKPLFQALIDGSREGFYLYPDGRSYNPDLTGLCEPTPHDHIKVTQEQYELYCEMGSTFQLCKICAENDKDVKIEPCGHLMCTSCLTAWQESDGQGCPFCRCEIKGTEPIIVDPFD

SMILES | IC50 [1] [µM] | IC50 [2] [µM]
CC(Cc1nncn1C)c1cccc(-c2nc3ccc(C(=O)N4CCN(C)CC4)c(C(F)(F)F)c3[nH]2)c1 (racemic) [AY-5, (2-(3-(1-(4-Methyl-4H-1,2,4-triazol-3-yl)propan-2-yl)phenyl)-7-(trifluoromethyl)-1H-benzo[d]imidazol-6-yl)(4-methylpiperazin-1-yl)methanone] | 10 to 50 | 10 to 50
CN1CC[C@@H](Oc2ccc3nc(-c4cccc(-c5ccccc5-c5nncn5C)c4)[nH]c3c2C(F)(F)F)C1 [BH-3, (R)-2-(2′-(4-Methyl-4H-1,2,4-triazol-3-yl)-[1,1′-biphenyl]-3-yl)-6-((1-methylpyrrolidin-3-yl)oxy)-7-(trifluoromethyl)-1H-benzo[d]imidazole] | 10 to 50 | 10 to 50
C=Cc1cc(C(F)(F)F)c2oc(-c3cccc(-c4ccc(F)cc4-c4nncn4C)c3)nc2c1 (racemic) [DL-1, 2-(4′-Fluoro-2′-(4-methyl-4H-1,2,4-triazol-3-yl)-[1,1′-biphenyl]-3-yl)-7-(trifluoromethyl)-5-vinylbenzo[d]oxazole] | 0.2 to 1 | 1 to 10
Cn1cnnc1C[C@]1(c2cccc(-c3nc4cccc(C(F)(F)F)c4o3)c2)C[C@H](C#N)C1 [AAT-14, (1r,3r)-3-((4-Methyl-4H-1,2,4-triazol-3-yl)methyl)-3-(3-(7-(trifluoromethyl)benzo[d]oxazol-2-yl)phenyl)cyclobutane-1-carbonitrile] | 1 to 10 | 10 to 50
Cn1cnnc1CC1(c2cccc(-c3nc4cc(CNc5nccn5C)cc(C(F)(F)F)c4[nH]3)c2)COC1 [ACC-1, 1-Methyl-N-((2-(3-(3-((4-methyl-4H-1,2,4-triazol-3-yl)methyl)oxetan-3-yl)phenyl)-7-(trifluoromethyl)-1H-benzo[d]imidazol-5-yl)methyl)-1H-imidazol-2-amine] | 0.2 to 1 | 1 to 10
Cn1cnnc1-c1cnn(C)c1-c1cccc(-c2nc3cc(CN[C@H]4CCC[C@@H]4O)cc(C(F)(F)F)c3o2)c1 [AAU-6, (1S,2S)-2-(((2-(3-(1-Methyl-4-(4-methyl-4H-1,2,4-triazol-3-yl)-1H-pyrazol-5-yl)phenyl)-7-(trifluoromethyl)benzo[d]oxazol-5-yl)methyl)amino)cyclopentan-1-ol] | 0.2 to 1 | 10 to 50
CCN(Cc1cc(C(F)(F)F)c2oc(-c3cccc(-c4ccc(F)cc4-c4nncn4C)c3)nc2c1)CC1(C#N)CCCC1 [CO-2, 1-((Ethyl((2-(4′-fluoro-2′-(4-methyl-4H-1,2,4-triazol-3-yl)-[1,1′-biphenyl]-3-yl)-7-(trifluoromethyl)benzo[d]oxazol-5-yl)methyl)amino)methyl)cyclopentane-1-carbonitrile] | < 0.2 | 1 to 10
Cn1cnnc1-c1cc(F)ccc1-c1cc(Cl)nc(-c2nc3cc(CO)cc(C(F)(F)F)c3[nH]2)c1 [ADX-3, (2-{6-Chloro-4-[4-fluoro-2-(4-methyl-1,2,4-triazol-3-yl)phenyl]pyridin-2-yl}-7-(trifluoromethyl)-1H-1,3-benzodiazol-5-yl)methanol] | 10 to 50 | 10 to 50
COC(=O)c1cc(OC)c2oc(-c3cccc([C@]4(c5nncn5C)C[C@@H](C)C4)c3)nc2c1 [AEA-1, Methyl 7-methoxy-2-{3-[(1r,3s)-3-methyl-1-(4-methyl-1,2,4-triazol-3-yl)cyclobutyl]phenyl}-1,3-benzoxazole-5-carboxylate] | 10 to 50 | 10 to 50
CCNc1cc(-c2c(-c3nncn3C)cnn2C)cc(-c2cc(C(F)(F)F)c[nH]c2=O)n1 [ACQ-3, 6-(Ethylamino)-4-(1-methyl-4-(4-methyl-4H-1,2,4-triazol-3-yl)-1H-pyrazol-5-yl)-5′-(trifluoromethyl)-[2,3′-bipyridin]-2′(1′H)-one] | 0.2 to 1 | 1 to 10
C[C@@H]1CN(Cc2cc(C(F)(F)F)c3oc(-c4cccc(-c5ccccc5-c5nncn5C)c4)nc3c2)CCO1 [Example 0-4, (R)-2-(2′-(4-Methyl-4H-1,2,4-triazol-3-yl)-[1,1′-biphenyl]-3-yl)-5-((2-methylmorpholino)methyl)-7-(trifluoromethyl)benzo[d]oxazole] | 0.2 to 1 | 10 to 50
COC(=O)c1cc(C(F)(F)F)c2oc(-c3cccc(-c4ccc(F)cc4-c4nncn4C)c3)nc2c1 [Example X-1, Methyl 2-(4′-fluoro-2′-(4-methyl-4H-1,2,4-triazol-3-yl)-[1,1′-biphenyl]-3-yl)-7-(trifluoromethyl)benzo[d]oxazole-5-carboxylate] | 0.2 to 1 | 1 to 10
COc1cc(CO)cc2nc(-c3cccc([C@]4(c5nncn5C)C[C@@H](C)C4)c3)oc12 [AEB-1, (7-Methoxy-2-{3-[(1r,3s)-3-methyl-1-(4-methyl-1,2,4-triazol-3-yl)cyclobutyl]phenyl}-1,3-benzoxazol-5-yl)methanol] | 1 to 10 | 1 to 10
Cn1cnnc1-c1cc(C#N)ccc1-c1cccc(-c2nc3cc(CO)cc(C(F)(F)F)c3[nH]2)c1 [BZ-1, 3′-(5-(Hydroxymethyl)-7-(trifluoromethyl)-1H-benzo[d]imidazol-2-yl)-2-(4-methyl-4H-1,2,4-triazol-3-yl)-[1,1′-biphenyl]-4-carbonitrile] | 1 to 10 | 10 to 50
C[C@H](Cc1nncn1C)c1cccc(-c2nc3cccc(C(F)(F)F)n3n2)c1 [ACA-2, (R)-2-(3-(1-(4-methyl-4H-1,2,4-triazol-3-yl)propan-2-yl)phenyl)-5-(trifluoromethyl)-[1,2,4]triazolo[1,5-a]pyridine] | 10 to 50 | 10 to 50
Cn1cnnc1-c1cc(F)ccc1-c1cccc(-c2nc3cccc(C(F)(F)F)c3[nH]2)c1 [BI-1, 2-(4′-Fluoro-2′-(4-methyl-4H-1,2,4-triazol-3-yl)-[1,1′-biphenyl]-3-yl)-7-(trifluoromethyl)-1H-benzo[d]imidazole] | 0.2 to 1 | 10 to 50
C[C@H](Cc1nncn1C)c1cccc(-c2nc3cccc(C(F)(F)F)c3[nH]2)c1 [ABD-9, 2-{3-[(2R)-1-(4-Methyl-1,2,4-triazol-3-yl)propan-2-yl]phenyl}-4-(trifluoromethyl)-3H-1,3-benzodiazole] | 10 to 50 | 10 to 50
C[C@H]1CCCN(C(=O)c2cc(C(F)(F)F)c3oc(-c4cccc(-c5ccccc5-c5nncn5C)c4)nc3c2)C1 [Example I-2, (S)-(2-(2′-(4-Methyl-4H-1,2,4-triazol-3-yl)-[1,1′-biphenyl]-3-yl)-7-(trifluoromethyl)benzo[d]oxazol-5-yl)(3-methylpiperidin-1-yl)methanone] | 10 to 50 | 10 to 50
Cn1cnnc1-c1cc(F)ccc1-c1cccc(-c2nc3cc(CO)ccc3[nH]2)c1 [BW-3, (2-(4′-Fluoro-2′-(4-methyl-4H-1,2,4-triazol-3-yl)-[1,1′-biphenyl]-3-yl)-1H-benzo[d]imidazol-5-yl)methanol] | 10 to 50 | 10 to 50
CN(C)CCOc1ccc2nc(-c3cccc(C4(Cc5nncn5C)COC4)c3)[nH]c2c1C(F)(F)F [AZ-1, N,N-Dimethyl-2-((2-(3-(3-((4-methyl-4H-1,2,4-triazol-3-yl)methyl)oxetan-3-yl)phenyl)-7-(trifluoromethyl)-1H-benzo[d]imidazol-6-yl)oxy)ethan-1-amine] | 10 to 50 | 10 to 50
CCNc1cc(-c2ccccc2-c2nncn2C)cc(-n2nc3c(C(F)(F)F)cccn3c2=O)n1 [AAO-4, 2-(6-(Ethylamino)-4-(2-(4-methyl-4H-1,2,4-triazol-3-yl)phenyl)pyridin-2-yl)-8-(trifluoromethyl)-[1,2,4]triazolo[4,3-a]pyridin-3(2H)-one] | 10 to 50 | 10 to 50
Cn1cnnc1-c1cc(C#N)ccc1-c1cccc(-c2nc3cccc(C(F)(F)F)c3[nH]2)c1 [CB-1, 2-(4-Methyl-4H-1,2,4-triazol-3-yl)-3′-(4-(trifluoromethyl)-1H-benzo[d]imidazol-2-yl)-[1,1′-biphenyl]-4-carbonitrile] | 10 to 50 | 10 to 50
COC(=O)c1ccc2[nH]c(-c3cc(-c4ccc(F)cc4-c4nncn4C)cc(C4CC4)n3)nc2c1 [AED-3, Methyl 2-(6-cyclopropyl-4-(4-fluoro-2-(4-methyl-4H-1,2,4-triazol-3-yl)phenyl)pyridin-2-yl)-1H-benzo[d]imidazole-5-carboxylate] | 10 to 50 | 10 to 50
CCNc1cc(-c2ccccc2-c2nncn2C)cc(-c2nc3cc(CO)cc(C(F)(F)F)c3[nH]2)n1 [AAN-3, {2-[6-(Ethylamino)-4-[2-(4-methyl-1,2,4-triazol-3-yl)phenyl]pyridin-2-yl]-7-(trifluoromethyl)-1H-1,3-benzodiazol-5-yl}methanol] | 10 to 50 | 10 to 50
Cn1cnnc1CC1(c2cccc(-c3cc(C(F)(F)F)cn(CCO)c3=O)c2)COC1 [ACG-3, 1-(2-Hydroxyethyl)-3-(3-(3-((4-methyl-4H-1,2,4-triazol-3-yl)methyl)oxetan-3-yl)phenyl)-5-(trifluoromethyl)pyridin-2(1H)-one] | 0.2 to 1 | 10 to 50
Cn1cnnc1-c1cc(C#N)ccc1-c1cccc(-c2nc3cccc(C(F)(F)F)c3o2)c1 [AU-1, 2-(4-Methyl-4H-1,2,4-triazol-3-yl)-3′-(7-(trifluoromethyl)benzo[d]oxazol-2-yl)-[1,1′-biphenyl]-4-carbonitrile] | 0.2 to 1 | 10 to 50
